For the series the following is noted: Crystal; visual observation.

The structures appear in SMILES notation. ± gives the expanded uncertainty stated by the source.

For `CC(C)(C)NC(=O)[C@H]1CC[C@H]2[C@@H]3CC[C@H]4NC(=O)C=C[C@]4(C)[C@H]3CC[C@]12C` [finasteride], the Normal melting temperature was 252 ± 1 °C.
In the case of `C[C@]12C=CC(=O)N[C@@H]1CC[C@@H]1[C@@H]2CC[C@]2(C)[C@@H](C(=O)Nc3cc(C(F)(F)F)ccc3C(F)(F)F)CC[C@@H]12` [dutasteride], the Normal melting temperature came to 242 ± 1 °C.
For the molecule `CC(C)C(=O)Nc1ccc([N+](=O)[O-])c(C(F)(F)F)c1` [flutamide], the Normal melting temperature was 111 ± 1 °C.

The values above are taken from the NIST ThermoML archive (doi:10.1021/je900520a).
